Results taken from ChEMBL document CHEMBL1201862, “PubChem BioAssay data set” (2004).
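Method: 48-hour compound exposure of cells in 96-well plates, five concentrations, linear interpolation of endpoints. Here, GI50 denotes the concentration required for 50% inhibition of growth.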 Activity calls are given as the source filed them. Cut-off read from the data, not from the text of the source: active = GI50 up to about 1.1 µM and inactive = higher.

Key:
Assay in all cases: NCI anticancer screen, dose series, 48 h
[1] = system: NCI-H226
[2] = system: SK-MEL-2
[3] = system: HL-60
[4] = system: OVCAR-3
[5] = system: SK-MEL-5
[6] = system: 786-0
[7] = system: OVCAR-5
[8] = system: M19-MEL
[9] = system: SF-295
[10] = system: CAKI-1
[11] = system: SNB-19
[12] = system: DLD-1
[13] = system: SK-OV-3
[14] = system: KM-20L2
[15] = system: NCI-H23
[16] = system: CCRF-CEM
[17] = system: HOP-18
[18] = system: A549
[19] = system: LOX IMVI
[20] = system: A498
[21] = system: EKVX
[22] = system: UACC-62
[23] = system: OVCAR-8
[24] = system: SN12C
[25] = system: U-251
[26] = system: HCC 2998
[27] = system: OVCAR-4
[28] = system: SK-MEL-28
[29] = system: SW-620
[30] = system: SR
[31] = system: DMS-273
[32] = system: TK-10
[33] = system: RXF 393
[34] = system: DMS-114
[35] = system: HOP-62
[36] = system: ACHN
[37] = system: LXFL 529
[38] = system: MOLT-4
[39] = system: HOP-92
[40] = system: SF-268
[41] = system: M14
[42] = system: K562
[43] = system: RPMI-8226
[44] = system: SNB-75
[45] = system: SNB-78
[46] = system: HCT-15
[47] = system: IGROV-1
[48] = system: UACC-257
[49] = system: SF-539
[50] = system: KM12
[51] = system: HCT-116
[52] = system: Malme-3M
[53] = system: COLO 205
[54] = system: UO-31
[55] = system: HT-29
[56] = system: NCI-H460
[57] = system: XF498
[58] = system: NCI-H522

SMILES: CCOc1ccccc1NC(=O)C(=O)CC(=O)c1sc(Nc2nnc(-c3ccc(Cl)c(Cl)c3)o2)nc1C
- GI50 [1]: > 100 µM (inactive)
- GI50 [2]: > 100 µM (inactive)
- GI50 [3]: > 100 µM (inactive)
- GI50 [4]: 77.8 µM (inactive)
- GI50 [5]: > 100 µM (inactive)
- GI50 [6]: > 100 µM (inactive)
- GI50 [7]: > 100 µM (inactive)
- GI50 [8]: > 100 µM (inactive)
- GI50 [9]: > 100 µM (inactive)
- GI50 [10]: > 100 µM (inactive)
- GI50 [11]: > 100 µM (inactive)
- GI50 [12]: 88.7 µM (inactive)
- GI50 [13]: > 100 µM (inactive)
- GI50 [14]: > 100 µM (inactive)
- GI50 [15]: > 100 µM (inactive)
- GI50 [16]: 40.8 µM (inactive)
- GI50 [17]: > 100 µM (inactive)
- GI50 [18]: > 100 µM (inactive)
- GI50 [19]: 31.8 µM (inactive)
- GI50 [20]: > 100 µM (inactive)
- GI50 [21]: > 100 µM (inactive)
- GI50 [22]: > 100 µM (inactive)
- GI50 [23]: > 100 µM (inactive)
- GI50 [24]: > 100 µM (inactive)
- GI50 [25]: 18.8 µM (inactive)
- GI50 [26]: > 100 µM (inactive)
- GI50 [27]: > 100 µM (inactive)
- GI50 [28]: > 100 µM (inactive)
- GI50 [29]: 33.5 µM (inactive)
- GI50 [30]: > 100 µM (inactive)
- GI50 [31]: 59 µM (inactive)
- GI50 [32]: > 100 µM (inactive)
- GI50 [33]: > 100 µM (inactive)
- GI50 [34]: > 100 µM (inactive)
- GI50 [35]: > 100 µM (inactive)
- GI50 [36]: > 100 µM (inactive)
- GI50 [37]: > 100 µM (inactive)
- GI50 [38]: > 100 µM (inactive)
- GI50 [39]: > 100 µM (inactive)
- GI50 [40]: > 100 µM (inactive)
- GI50 [41]: > 100 µM (inactive)
- GI50 [42]: > 100 µM (inactive)
- GI50 [43]: 64.3 µM (inactive)
- GI50 [44]: > 100 µM (inactive)
- GI50 [45]: > 100 µM (inactive)
- GI50 [46]: > 100 µM
- GI50 [47]: > 100 µM (inactive)
- GI50 [48]: 98.9 µM (inactive)
- GI50 [49]: > 100 µM (inactive)
- GI50 [50]: > 100 µM (inactive)
- GI50 [51]: > 100 µM (inactive)
- GI50 [52]: > 100 µM (inactive)
- GI50 [53]: > 100 µM (inactive)
- GI50 [54]: > 100 µM (inactive)
- GI50 [55]: > 100 µM (inactive)
- GI50 [56]: 51.8 µM (inactive)

SMILES: COC1(OC)CC2C(=O)N(Cc3ccccc3)C1C=C2S(=O)(=O)c1ccccc1 (centres undefined)
- GI50 [1]: 27.9 µM (inactive)
- GI50 [3]: 11.7 µM (inactive)
- GI50 [4]: 14.8 µM (inactive)
- GI50 [5]: 13.8 µM (inactive)
- GI50 [6]: 19.7 µM (inactive)
- GI50 [8]: 16 µM (inactive)
- GI50 [9]: 28.5 µM (inactive)
- GI50 [11]: 24 µM (inactive)
- GI50 [12]: 12.7 µM (inactive)
- GI50 [13]: 47.5 µM (inactive)
- GI50 [14]: 18.8 µM (inactive)
- GI50 [15]: 18 µM (inactive)
- GI50 [16]: 14.9 µM (inactive)
- GI50 [17]: 17.1 µM (inactive)
- GI50 [18]: 21.9 µM (inactive)
- GI50 [19]: 13.4 µM (inactive)
- GI50 [20]: 20 µM (inactive)
- GI50 [21]: 15.6 µM (inactive)
- GI50 [22]: 16.7 µM (inactive)
- GI50 [23]: 17.9 µM (inactive)
- GI50 [24]: 16.4 µM (inactive)
- GI50 [25]: 15.5 µM (inactive)
- GI50 [26]: 19.5 µM (inactive)
- GI50 [27]: 20.5 µM (inactive)
- GI50 [28]: 17.5 µM (inactive)
- GI50 [29]: 15.2 µM (inactive)
- GI50 [30]: 15 µM (inactive)
- GI50 [32]: 25.1 µM (inactive)
- GI50 [33]: 12.7 µM (inactive)
- GI50 [34]: 17.2 µM (inactive)
- GI50 [35]: 38.8 µM (inactive)
- GI50 [36]: 20.8 µM (inactive)
- GI50 [37]: 15.6 µM (inactive)
- GI50 [57]: 17.8 µM (inactive)
- GI50 [38]: 16.5 µM (inactive)
- GI50 [39]: 24.1 µM (inactive)
- GI50 [40]: 37 µM (inactive)
- GI50 [41]: 16.1 µM (inactive)
- GI50 [42]: 22.5 µM (inactive)
- GI50 [43]: 21 µM (inactive)
- GI50 [44]: 28.8 µM (inactive)
- GI50 [45]: 21.8 µM (inactive)
- GI50 [58]: 13.9 µM (inactive)
- GI50 [47]: 32.9 µM (inactive)
- GI50 [48]: 16.9 µM (inactive)
- GI50 [49]: 17 µM (inactive)
- GI50 [50]: 17.4 µM (inactive)
- GI50 [51]: 13.8 µM (inactive)
- GI50 [52]: 20.4 µM (inactive)
- GI50 [53]: 10.2 µM (inactive)
- GI50 [54]: 25 µM (inactive)
- GI50 [55]: 18.5 µM (inactive)
- GI50 [56]: 18.2 µM (inactive)
